*1 amine or outer side, *2 acyl side, *3 side chain or, on linkers, in order; H or OH if unused. Primed or numbered codes have the meaning given here. Where no end group is shown, it is not given here. Side-chain parts run from the residue outwards. [ ]: non-standard residue; d: D form. The star is where a group is joined. C18 diacid = O=C(O)CCCCCCCCCCCCCCCCC(=O)*; γGlu = O=C(O)[C@H](CCC(=O)[*:2])N[*:1]; Stearoyl = CCCCCCCCCCCCCCCCCC(=O)*; Palmitoyl = CCCCCCCCCCCCCCCC(=O)*; PEG2′ = not defined here; Aib = CC(C)(N)C(=O)O
Tested on: Hepatic stellate cell strain LX-2
Assay: In vitro inhibition of hepatic fibrosis: expression of LX-2 cell activation marker α-SMA (Western Blot, α-SMA/β-actin)
Assay type: cell-based, human
Details: LX-2 cells; for Relative expression of α-SMA (α-SMA/β-actin, %): 48 hours, negative control = 100%
Protocol: Hepatic stellate cell strain LX-2 was selected to study and observe the effect of different doses of test substances on the expression of LX-2 cell activation marker […]. Hepatic stellate cell LX-2 was laid on 35 mm cell culture plate, cultured with DMEM (high glucose)+10% FBS+1% double-antibody culture medium (Thermo Fisher), placed overnight when the cells grew to 70% convergence at 37° C. and under the condition of 5% CO2, and treated with the above compounds 1-37 (dissolved in PBS) for 48 hours the next day morning to extract cell protein, carry out Western Blot, and take β-actin as internal reference and analyze the expression quantities of α-SMA and β-actin by a gray level of Image J 1.50i. PBS with the same volume as that in experimental group was added in negative control. […] The integrating gray level of α-SMA/β-actin in the negative control group was 100% to analyze the in vitro inhibition activity of hepatic fibrosis of tested polypeptide.

Substance	Relative expression of α-SMA (α-SMA/β-actin, %) (1 μM)	further results
His-(D-Ser)-Gln-Gly-Thr-Phe-Thr-Ser-Asp-Lys(PEG2-PEG2-CO(CH2)14CH3)-Ser-Lys-Tyr-Leu-Asp-Aib-Arg-Arg-Ala-Gln-Asp-Phe-Val-Gln-Trp-Leu-Met-Asn-Thr-Gly-Gly-Pro-Ser-Ser-Gly-Ala-Pro-Pro-Pro-Ser-NH2 (H[dS]QGTFTSDK([PEG2′-PEG2′-Palmitoyl])SKYLD[Aib]RRAQDFVQWLMNTGGPSSGAPPPS-NH2) [Compound 31]	86.89%	
His-(D-Ser)-Gln-Gly-Thr-Phe-Thr-Ser-Asp-Lys(PEG2-PEG2-CO(CH2)16CH3)-Ser-Lys-Tyr-Leu-Asp-Aib-Arg-Arg-Ala-Gln-Asp-Phe-Val-Gln-Trp-Leu-Met-Asn-Thr-Gly-Gly-Pro-Ser-Ser-Gly-Ala-Pro-Pro-Pro-Ser-NH2 (H[dS]QGTFTSDK([PEG2′-PEG2′-Stearoyl])SKYLD[Aib]RRAQDFVQWLMNTGGPSSGAPPPS-NH2) [Compound 32]	97.14%	
His-(D-Ser)-Gln-Gly-Thr-Phe-Thr-Ser-Asp-Lys(PEG2-PEG2-CO(CH2)16CO2H)-Soer-Lys-Tyr-Leu-Asp-Aib-Arg-Arg-Ala-Gln-Asp-Phe-Val-Gln-Trp-Leu-Met-Asn-Thr-Gly-Gly-Pro-Ser-Ser-Gly-Ala-Pro-Pro-Pro-Ser-NH2 (H[dS]QGTFTSDK([PEG2′-PEG2′-C18 diacid])SKYLD[Aib]RRAQDFVQWLMNTGGPSSGAPPPS-NH2) [Compound 30]	85.53%	
His-(D-Ser)-Gln-Gly-Thr-Phe-Thr-Ser-Asp-Lys(PEG2-PEG2-γGlu-CO(CH2)14CH3)-Ser-Lys-Tyr-Leu-Asp-Aib-Arg-Arg-Ala-Gln-Asp-Phe-Val-Gln-Trp-Leu-Met-Asn-Thr-Gly-Gly-Pro-Ser-Ser-Gly-Ala-Pro-Pro-Pro-Ser-NH2 (H[dS]QGTFTSDK([PEG2′-PEG2′-γGlu-Palmitoyl])SKYLD[Aib]RRAQDFVQWLMNTGGPSSGAPPPS-NH2) [Compound 4]	88.50%	
His-(D-Ser)-Gln-Gly-Thr-Phe-Thr-Ser-Asp-Lys(PEG2-PEG2-γGlu-CO(CH2)16CO2H)-Ser-Lys-Tyr-Leu-Asp-Aib-Arg-Arg-Ala-Gln-Asp-Phe-Val-Gln-Trp-Leu-Met-Asn-Thr-Gly-Gly-Pro-Ser-Ser-Gly-Ala-Pro-Pro-Pro-Ser-NH2 (H[dS]QGTFTSDK([PEG2′-PEG2′-γGlu-C18 diacid])SKYLD[Aib]RRAQDFVQWLMNTGGPSSGAPPPS-NH2) [Compound 5]	67.94%	Inhibition of LX-2 cell activation marker α-SMA (in words, from Table 2): obviously reduce; Effect on expression of α-SMA (in words) (0.1 μM, 1 μM and 5 μM): reduce the expression of α-SMA under all concentrations; Relative expression of α-SMA (α-SMA/β-actin, %) (0.1 μM): 66.04%; Relative expression of α-SMA (α-SMA/β-actin, %) (5 μM): 33.45%
His-(D-Ser)-Gln-Gly-Thr-Phe-Thr-Ser-Asp-Tyr-Ser-Lys(PEG2-PEG2-CO(CH2)14CH3)-Lys-Leu-Asp-Aib-Arg-Arg-Ala-Gln-Asp-Phe-Val-Gln-Trp-Leu-Met-Asn-Thr-Gly-Gly-Pro-Ser-Ser-Gly-Ala-Pro-Pro-Pro-Ser-NH2 (H[dS]QGTFTSDYSK([PEG2′-PEG2′-Palmitoyl])KLD[Aib]RRAQDFVQWLMNTGGPSSGAPPPS-NH2) [Compound 9]	75.86%	
His-(D-Ser)-Gln-Gly-Thr-Phe-Thr-Ser-Asp-Tyr-Ser-Lys(PEG2-PEG2-CO(CH2)16CH3)-Lys-Leu-Asp-Aib-Arg-Arg-Ala-Gln-Asp-Phe-Val-Gln-Trp-Leu-Met-Asn-Thr-Gly-Gly-Pro-Ser-Ser-Gly-Ala-Pro-Pro-Pro-Ser-NH2 (H[dS]QGTFTSDYSK([PEG2′-PEG2′-Stearoyl])KLD[Aib]RRAQDFVQWLMNTGGPSSGAPPPS-NH2) [Compound 3]	82.25%	
His-(D-Ser)-Gln-Gly-Thr-Phe-Thr-Ser-Asp-Tyr-Ser-Lys(PEG2-PEG2-γGlu-CO(CH2)14CH3)-Lys-Leu-Asp-Aib-Arg-Arg-Ala-Gln-Asp-Phe-Val-Gln-Trp-Leu-Met-Asn-Thr-Gly-Gly-Pro-Ser-Ser-Gly-Ala-Pro-Pro-Pro-Ser-NH2 (H[dS]QGTFTSDYSK([PEG2′-PEG2′-γGlu-Palmitoyl])KLD[Aib]RRAQDFVQWLMNTGGPSSGAPPPS-NH2) [Compound 1]	75.26%	
